Assay results from the NIST ThermoML archive (doi:10.1016/j.fluid.2012.02.005).
± gives the expanded uncertainty stated by the source.

Conditions: Liquid; Ebulliometric method (Recirculating still)

SMILES | Normal boiling temperature
CC(C)=C(C)C [2,3-dimethyl-2-butene] | 73.00 ± 0.2 °C
Cc1ccsc1 [3-methylthiophene] | 115.20 ± 0.2 °C
Cc1ccccc1 [toluene] | 110.54 ± 0.2 °C

Next, values leading:

Normal boiling temperature | SMILES
28.00 ± 0.21 °C | CCC(C)C [2-methylbutane]
98.49 ± 0.2 °C | CCCCCCC [heptane]
